Literature values as cited in US20250241996A1, “COMBINATORIAL, AND ROTATIONAL COMBINATORIAL THERAPIES” (Starrock Pharma Inc., priority 2022, published 2025).
Like-named read-outs stand apart in the source and are kept apart here.

Columns and labels:
[1] = Model: in vitro; cited from earlier work
[2] = intravenous; 18 obese patients; cited from earlier work
[3] = oral administration; mice; cited from earlier work
[4] = injections, 4-week study; saline 0.5±0.5 kg; cited from earlier work
[5] = cited from earlier work; for average weight reduction (efficacy estimate): placebo 2.4%; for treatment discontinuation rate due to adverse events: placebo 2.6%; for overall treatment discontinuation rate: placebo 26.4%; for people achieving at least 5% body weight reductions: placebo 28%; for Body weight change from baseline / Estimated mean weight change / Patients with weight loss of >5% / Patients with weight loss of >20%: week 72
[6] = cited from earlier work
[7] = two hours after infusion, P<0.001, cited from earlier work
[8] = cited from earlier work; remark: listed apart in the source

Molecule: O=C1CCC(N2C(=O)c3ccccc3C2=O)C(=O)N1 (stereo not drawn) [Thalidomide]
- Results [1]: decrease TNF-α from Aβ42-

Molecule: enterostatin
- feelings of hunger, satiety, or food preference [2]: did not impact feelings of hunger, satiety, or food preference
- serum cholesterol [3]: reduce serum cholesterol after oral administration in mice

Molecule: oxyntomodulin: 37-amino acid peptide hormone (SEQ ID NO:4) (HSQGTFTSDYSKYLDSRRAQDFVQWLMNTKRNRNNIA; Oxyntomodulin (OXY/OXM 53-89); listed as Homo sapiens)
- average weight loss [4]: 2.3 ± 0.4 kg

Molecule: tirzepatide
- average weight reduction (efficacy estimate) ([5]; 5 mg): 16.0%
- treatment discontinuation rate due to adverse events ([5]; 5 mg): 4.3%
- overall treatment discontinuation rate ([5]; 5 mg): 14.3%
- people achieving at least 5% body weight reductions ([5]; 5 mg): 89%
- average weight reduction (efficacy estimate) ([5]; 10 mg): 21.4%
- treatment discontinuation rate due to adverse events ([5]; 10 mg): 7.1%
- overall treatment discontinuation rate ([5]; 10 mg): 16.4%
- people achieving at least 5% body weight reductions ([5]; 10 mg): 96%
- average weight reduction (efficacy estimate) ([5]; 15 mg): 22.5%
- treatment discontinuation rate due to adverse events ([5]; 15 mg): 6.2%
- overall treatment discontinuation rate ([5]; 15 mg): 15.1%
- people achieving at least 5% body weight reductions ([5]; 15 mg): 96%
- body weight lost (up to) ([5]; 5, 10, 15 mg, 72 weeks): ≤ 52 lb.
- Body weight change from baseline ([5]; SC 5 mg): -16 kg
- Estimated mean weight change ([5]; SC 5 mg): −15%
- Patients with weight loss of >5% ([5]; SC 5 mg): 85%
- Patients with weight loss of >20% ([5]; SC 5 mg): 30%
- Body weight change from baseline ([5]; SC 10 mg): -22 kg
- Estimated mean weight change ([5]; SC 10 mg): −19.5%
- Patients with weight loss of >5% ([5]; SC 10 mg): 89%
- Patients with weight loss of >20% ([5]; SC 10 mg): 50%
- Body weight change from baseline ([5]; SC 15 mg): -24 kg
- Estimated mean weight change ([5]; SC 15 mg): −20.9%
- Patients with weight loss of >5% ([5]; SC 15 mg): 91%
- Patients with weight loss of >20% ([5]; SC 15 mg): 57%
- trial participants experiencing abdominal pain ([5]; in vivo): 5%
- trial participants experiencing constipation ([5]; in vivo): 7%
- trial participants experiencing diarrhea ([5]; in vivo): 17%
- trial participants experiencing nausea ([5]; in vivo): 18%
- trial participants experiencing vomiting ([5]; in vivo): 9%
- long-term blood sugar control (A1C) and weight loss compared to semaglutide ([6]; human, in vivo): significantly better long-term blood sugar control (i.e., A1C) and weight loss compared to semaglutide
- body weight reduction ([6]; phase III, type 2 diabetes, semaglutide comparator at 1 mg): > 15%

B1: PYY: 36-amino acid peptide released from cells in the ileum and colon (peptide, listed as Homo sapiens)
chain: MVFVRRPWPALTTVLLALLVCLGALVDAYPIKPEAPREDASPEELNRYYASLRHYLNLVTRQRYGKRDGPDTLLSKTFFPDGEDRPVRSRSEGPDLW
modifications: Peptide tyrosine-tyrosine (PYY)
notes: 36-amino acid peptide released from cells in the ileum and colon
- decrease of caloric intake during a buffet lunch ([7]; lean subjects): 31%
- decrease of caloric intake during a buffet lunch ([7]; obese subjects): 30%

B2: adiponectin: 244-amino-acid-long polypeptide (SEQ ID NO:2) (protein, listed as Homo sapiens)
chain: MLLLGAVLLLLALPGHDQETTTQGPGVLLPLPKGACTGWMAGIPGHPGHNGAPGRDGRDGTPGEKGEKGDPGLIGPKGDIGETGVPGAEGPRGFPGIQGRKGEPGEGAYVYRSAFSVGLETYVTIPNMPIRFTKIFYNQQNHYDGSTGKFHCNIPGLYYFAYHITVYMKDVKVSLFKKDKAMLFTYDQYQENNVDQASGSVLLHLEVGDQVWLQVYGEGERNGLYADNDNDSTFTGFLLYHDTN
modifications: Adiponectin
- half-life [8]: 2.5 h
